Where “and” joins values, the source holds several entries; their conditions need not be identical. Equal values may be shown once. Inconclusive results and toxic doses are left out.

This assay relates to P388 leukemia ip, CD2F1 mice, survival T/C. Put plainly: NCI In Vivo Anticancer Drug Screen. Data for tumor model P388 Leukemia (intraperitoneal) in CD2F1 (CDF1) mice. The note with it: endpoint: median survival time, higher = longer survival. The method, boiled down:
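Mice carrying the transplanted tumor received test compound or vehicle. Survival was recorded in each group, and the value is the treated-group measurement divided by that of the vehicle-treated control group.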

Setting [1] is: dose: 12.5 mg/kg/injection, schedule: Q01DX009 (ip), vehicle: saline.
Setting [2] is: dose: 25.0 mg/kg/injection, schedule: Q01DX009 (ip), vehicle: saline.
Setting [3] is: dose: 50.0 mg/kg/injection, schedule: Q01DX009 (ip), vehicle: saline.
[4] abbreviates: dose: 100.0 mg/kg/injection, schedule: Q01DX009 (ip), vehicle: saline.
Setting [5] is: dose: 200.0 mg/kg/injection, schedule: Q01DX009 (ip), vehicle: saline.
Where [6] appears, read: dose: 60.0 mg/kg/injection, schedule: Q01DX005 (ip), vehicle: saline with Tween-80.
The mark [7] stands for this setting: dose: 120.0 mg/kg/injection, schedule: Q01DX005 (ip), vehicle: saline with Tween-80.
Where [8] appears, read: dose: 240.0 mg/kg/injection, schedule: Q01DX005 (ip), vehicle: saline with Tween-80.
[9] abbreviates: dose: 100.0 mg/kg/injection, schedule: Q04DX003 (ip), vehicle: saline.
[10] abbreviates: dose: 200.0 mg/kg/injection, schedule: Q04DX003 (ip), vehicle: saline.
The mark [11] stands for this setting: dose: 50.0 mg/kg/injection, schedule: Q01DX005 (ip), vehicle: saline with Tween-80.
The mark [12] stands for this setting: dose: 100.0 mg/kg/injection, schedule: Q01DX005 (ip), vehicle: saline with Tween-80.
The mark [13] stands for this setting: dose: 200.0 mg/kg/injection, schedule: Q01DX005 (ip), vehicle: saline with Tween-80.
[14] abbreviates: dose: 50.0 mg/kg/injection, schedule: Q01DX009 (ip), vehicle: saline with Tween-80.
Where [15] appears, read: dose: 100.0 mg/kg/injection, schedule: Q01DX009 (ip), vehicle: saline with Tween-80.
Where [16] appears, read: dose: 200.0 mg/kg/injection, schedule: Q01DX009 (ip), vehicle: saline with Tween-80.
Setting [17] is: dose: 50.0 mg/kg/injection, schedule: Q01DX009 (ip), vehicle: Klucel (hydroxypropylcellulose) (HPC).
[18] abbreviates: dose: 100.0 mg/kg/injection, schedule: Q01DX009 (ip), vehicle: Klucel (hydroxypropylcellulose) (HPC).
Where [19] appears, read: dose: 200.0 mg/kg/injection, schedule: Q01DX009 (ip), vehicle: Klucel (hydroxypropylcellulose) (HPC).
The mark [20] stands for this setting: dose: 6.25 mg/kg/injection, schedule: Q01DX009 (ip), vehicle: saline.
Setting [21] is: dose: 15.0 mg/kg/injection, schedule: Q01DX005 (ip), vehicle: saline with Tween-80.
The mark [22] stands for this setting: dose: 30.0 mg/kg/injection, schedule: Q01DX005 (ip), vehicle: saline with Tween-80.

`O=C1CCCC(=O)OCCOCCOCCOCCOCCO1`: the T/C under setting [1] was 104 % of control and 108 % of control; the T/C under setting [2] is 104 % of control and 95 % of control; the T/C under setting [3] was 104 % of control and 108 % of control and 120 % of control; the T/C under setting [4] is 105 % of control; the T/C under setting [5] was 105 % of control.

On to `[CH3][Ge]([CH3])([CH3])/[C](=[C](\c1ccccc1)[Ge]([CH3])([CH3])[CH3])c1ccccc1`, for which the T/C is, setting by setting: under setting [3], 106 % of control; under setting [4], 92 % of control; under setting [5], 93 % of control.

As for `Clc1nc(C(Cl)Cl)nc2sc3c(c12)CCCC3`, the T/C reads like this: under setting [6], 98 % of control; under setting [7], 94 % of control; under setting [8], 96 % of control.

As to `Cc1cc2nc(CN)[nH]c2cc1C`, the T/C is 100 % of control (dose: 50.0 mg/kg/injection, schedule: Q04DX003 (ip), vehicle: saline); 100 % of control under setting [9]; 95 % of control under setting [10].

As to `Nc1c(Cl)cc(Cl)cc1Cl`, the T/C is, setting by setting: (dose: 100.0 mg/kg/injection, schedule: Q04DX003 (ip), vehicle: alcohol) 108 % of control; (dose: 200.0 mg/kg/injection, schedule: Q04DX003 (ip), vehicle: alcohol) 100 % of control; (dose: 400.0 mg/kg/injection, schedule: Q04DX003 (ip), vehicle: alcohol) 100 % of control.

With `c1ccc2c(-c3nccc4ccccc34)nccc2c1`, the T/C reads like this: under setting [11], 99 % of control; under setting [12], 103 % of control; under setting [13], 92 % of control.

On to `CCCCCCC(=O)/C=C/c1cccc(OC)c1OC`, for which the T/C is, setting by setting: under setting [14], 99 % of control; under setting [15], 107 % of control; under setting [16], 105 % of control.

Regarding `Cn1c(=S)[nH]c2sc3c(c2c1=O)CCCC3`, the T/C is 97 % of control under setting [7] and 96 % of control under setting [8].

Turning to `CCN(CC)CCOc1ccc(-c2cc(-c3ccccc3)nc(N)n2)cc1`, the T/C is 106 % of control (dose: 25.0 mg/kg/injection, schedule: Q01DX005 (ip), vehicle: saline); 98 % of control and 100 % of control and 106 % of control (dose: 50.0 mg/kg/injection, schedule: Q01DX005 (ip), vehicle: saline); 111 % of control and 114 % of control and 123 % of control (dose: 100.0 mg/kg/injection, schedule: Q01DX005 (ip), vehicle: saline).

For the compound `Cc1nn(C(=O)c2cccnc2)c(-c2ccccc2)c1N=Nc1ccc(S(=O)(=O)Nc2ncccn2)cc1`, the T/C was 89 % of control under setting [11] and 88 % of control under setting [12].

Consider `CN(C)CCNc1ccc2cc3ccc(N=Nc4ccc(N(C)C)cc4)cc3nc2c1`, for which the T/C was 100 % of control (dose: 100.0 mg/kg/injection, schedule: Q04DX003 (ip), vehicle: saline with Tween-80); 101 % of control (dose: 200.0 mg/kg/injection, schedule: Q04DX003 (ip), vehicle: saline with Tween-80); 103 % of control (dose: 400.0 mg/kg/injection, schedule: Q04DX003 (ip), vehicle: saline with Tween-80).

With `O=C(O)c1c[nH]c2cc(OCc3ccc(F)cc3)ccc2c1=O`, the T/C is 88 % of control under setting [9]; 93 % of control under setting [10]; 90 % of control (dose: 400.0 mg/kg/injection, schedule: Q04DX003 (ip), vehicle: saline).

`O=C1C=CC(=O)C(c2ccc(Cl)cc2)=C1`: the T/C runs as follows: (dose: 12.5 mg/kg/injection, schedule: Q01DX009 (ip), vehicle: saline with Tween-80) 98 % of control; (dose: 25.0 mg/kg/injection, schedule: Q01DX009 (ip), vehicle: saline with Tween-80) 90 % of control; under setting [15], 90 % of control.

With `Nn1nnc2cc3c(cc21)nnn3N`, the T/C was 109 % of control (dose: 100.0 mg/kg/injection, schedule: Q04DX002 (ip), vehicle: saline with Tween-80); 98 % of control (dose: 200.0 mg/kg/injection, schedule: Q04DX002 (ip), vehicle: saline with Tween-80); 95 % of control (dose: 400.0 mg/kg/injection, schedule: Q04DX002 (ip), vehicle: saline with Tween-80).

`O=c1cc(-c2ccccc2)ss1`: the T/C is 110 % of control (dose: 100.0 mg/kg/injection, schedule: Q01DX009 (ip), vehicle: other) and 110 % of control (dose: 200.0 mg/kg/injection, schedule: Q01DX009 (ip), vehicle: other).

With `CCNc1nncs1`, the T/C by setting is: under setting [2], 113 % of control; under setting [4], 161 % of control; (dose: 125.0 mg/kg/injection, schedule: Q01DX009 (ip), vehicle: saline) 162 % of control.

`CN(/N=C/c1ccccc1O)C(=O)Nc1cc(C(F)(F)F)ccc1Cl`: the T/C is 100 % of control (dose: 25.0 mg/kg/injection, schedule: Q01DX005 (ip), vehicle: saline with Tween-80); 100 % of control and 102 % of control under setting [11]; 94 % of control and 96 % of control under setting [12]; 91 % of control and 94 % of control under setting [13].

Regarding `Cc1nc(SCC(=O)O)n[nH]1`, the T/C under setting [14] was 103 % of control, the T/C under setting [15] is 103 % of control and the T/C under setting [16] was 101 % of control.

As for `NNC(=O)c1ccccc1NC(=O)CSc1nc2ccccc2s1`, the T/C is 104 % of control under setting [17], 101 % of control under setting [18] and 101 % of control under setting [19].

Turning to `Cc1c(C)c(=O)c2cc3c(=O)ccc(=O)c3cc2c1=O`, the T/C (dose: 12.5 mg/kg/injection, schedule: Q04DX003 (ip), vehicle: Klucel (hydroxypropylcellulose) (HPC)) is 101 % of control; the T/C (dose: 25.0 mg/kg/injection, schedule: Q04DX003 (ip), vehicle: Klucel (hydroxypropylcellulose) (HPC)) was 96 % of control; the T/C (dose: 50.0 mg/kg/injection, schedule: Q04DX003 (ip), vehicle: Klucel (hydroxypropylcellulose) (HPC)) is 103 % of control.

As to `c1ccc(-c2c[n+]3ccccc3n2-c2ccccc2)cc1`, the T/C is, setting by setting: (dose: 1.56 mg/kg/injection, schedule: Q01DX009 (ip), vehicle: saline) 100 % of control; (dose: 3.12 mg/kg/injection, schedule: Q01DX009 (ip), vehicle: saline) 94 % of control; under setting [20], 101 % of control and 92 % of control.

Turning to `Nc1nnc(-c2cc([N+](=O)[O-])cc([N+](=O)[O-])c2)o1`, the T/C reads like this: under setting [6], 108 % of control; under setting [7], 94 % of control; under setting [8], 100 % of control.

Regarding `O=S(=O)(c1ccc(F)cc1)C1C(c2ccccc2)=NNC1c1ccccc1Cl` (stereo not given), the T/C under setting [11] is 95 % of control, the T/C under setting [12] was 95 % of control and the T/C under setting [13] was 106 % of control.

Regarding `O=C1c2ccccc2C(=C2c3ccccc3C(=O)c3ccccc32)c2ccccc21`, the T/C is 99 % of control under setting [17]; 91 % of control under setting [18]; 92 % of control under setting [19]; 97 % of control (dose: 400.0 mg/kg/injection, schedule: Q01DX009 (ip), vehicle: Klucel (hydroxypropylcellulose) (HPC)).

In the case of `Cc1ccc(-n2c(CSc3ccc(Cl)cc3)nnc2SCc2nc3ccccc3[nH]2)cc1`, the T/C is 92 % of control under setting [21]; 102 % of control under setting [22]; 96 % of control and 98 % of control under setting [6].

As to `O=C(CCCl)Nc1cccc(CCC(=O)c2cccc(NC(=O)CCCl)c2)c1`, the T/C was 103 % of control under setting [21]; 103 % of control under setting [22]; 102 % of control and 103 % of control under setting [6]; 103 % of control under setting [7]; 110 % of control under setting [8].

As for `O=C1c2ccccc2CC1CS(=O)(=O)CC1Cc2ccccc2C1=O` (stereo not given), the T/C was 100 % of control (dose: 100.0 mg/kg/injection, schedule: Q04DX002 (ip), vehicle: saline); 100 % of control (dose: 200.0 mg/kg/injection, schedule: Q04DX002 (ip), vehicle: saline); 91 % of control and 96 % of control (dose: 400.0 mg/kg/injection, schedule: Q04DX002 (ip), vehicle: saline).

As to `Cc1ccc2c(c1)C=CC(C#N)N2C(=O)Oc1ccccc1` (stereo not given), the T/C by setting is: under setting [20], 99 % of control and 101 % of control; under setting [1], 98 % of control; under setting [2], 93 % of control and 96 % of control.

Turning to `CSc1nnc(N)s1`, the T/C by setting is: under setting [14], 106 % of control; under setting [15], 93 % of control; under setting [16], 100 % of control.

These data come from PubChem BioAssay AID330 (DTP/NCI, 2004).
